In patent US11572398B2, “GLP-1 derivatives and uses thereof” (Novo Nordisk A/S, priority 2014, dated 2023):
Where two headings read alike, the source gives them in different places.

How the values were obtained:
human GLP-1 receptor [1] = target: T1, human GLP-1 receptor (Homo sapiens, UniProt P43220); assay: GLP-1 receptor binding: competitive binding assay (125I-GLP-1, SPA) on isolated membranes at low and high HSA
T1 construct: expressed in transfected cells; host or cells: BHK cells (parent line BHKTS13), clone FCW467-12A; membrane preparation
T1 sequence (P43220 24-463): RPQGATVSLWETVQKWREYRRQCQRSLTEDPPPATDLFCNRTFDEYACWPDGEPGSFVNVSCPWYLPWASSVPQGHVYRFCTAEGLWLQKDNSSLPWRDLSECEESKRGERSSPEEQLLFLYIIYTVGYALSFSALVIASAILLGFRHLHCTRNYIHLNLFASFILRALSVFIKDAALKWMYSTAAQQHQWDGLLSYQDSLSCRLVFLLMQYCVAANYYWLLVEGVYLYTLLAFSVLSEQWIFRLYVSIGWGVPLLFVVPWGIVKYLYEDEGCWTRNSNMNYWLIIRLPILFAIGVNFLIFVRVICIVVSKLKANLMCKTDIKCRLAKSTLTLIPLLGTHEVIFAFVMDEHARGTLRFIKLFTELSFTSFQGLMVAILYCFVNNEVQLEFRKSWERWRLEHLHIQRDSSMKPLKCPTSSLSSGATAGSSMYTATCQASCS

human GLP-1 receptor [2] = target: T1, human GLP-1 receptor; assay: In vitro potency: CRE luciferase reporter gene assay in BHK cells expressing the human GLP-1 receptor; assay type: cell-based
Experimental: The purpose of this example is to test the activity, or potency, of the GLP-1 derivatives in vitro. The in vitro potency is the measure of human GLP-1 receptor activation in a whole cell assay.
In vitro potency was determined by measuring the response of the human GLP-1 receptor in a reporter gene assay. The assay was performed in a stably transfected BHK cell line that expresses the human GLP-1 receptor and contains the DNA for the cAMP response element (CRE) coupled to a promoter and the gene for firefly luciferase (CRE luciferase). When the human GLP-1 receptor is activated it results in the production of cAMP, which in turn results in the luciferase protein being expressed. When assay incubation is completed the luciferase substrate (luciferin) is added and the enzyme converts luciferin to oxyluciferin to produce bioluminescence. The luminescence is measured as the readout for the assay.
The cells were cultured at 5% CO2 in cell culture medium. They were aliquoted and stored in liquid nitrogen. Before each assay an aliquot was taken up and washed twice in PBS before being suspended at the desired concentration in the assay specific buffer.
The assay buffer consisted of 2% ovalbumin and 0.2% Pluronic F-68 in assay medium.
1) Cell stocks were thawed in a 37° C. water bath.
2) Cells were washed three times in PBS.
3) Cells were counted and adjusted to 5×10^3 cells/50 μl (1×10^5 cells/ml) in assay medium. A 50 μl aliquot of cells was transferred to each well in the assay plate.
4) Stocks of the test compounds and reference compounds were diluted to a concentration of 0.2 μM in assay buffer. […] 8) A 100 μl aliquot of steadylite plus reagent was added to each well of the assay plate. 9) Each assay plate was covered with aluminum foil to protect it from light and shaken for 30 min at room temperature. 10) Each assay plate was read in a BioTek Synergy 2 Multi-Mode Reader. Calculations and Results
The data from the BioTek Synergy 2 Multi-Mode Reader were transferred to GraphPad Prism software. The software performs a non-linear regression (log(agonist) vs response (three parameters)).
A minimum of two replicates were measured for each sample. The reported EC50 values are averages of all of the measured values for each compound.

[3] = High HSA IC50, high HSA (2.0% final assay concentration)
[4] = Low HSA IC50, low HSA (max. 0.001% final assay concentration)
[5] = high HSA (2.0% final assay concentration), read-out: High HSA IC50
[6] = whole cell reporter gene assay, BHK cells, human GLP-1 receptor, average of at least two replicates, read-out: EC50

| SMILES | IC50 (human GLP-1 receptor [1]; [3]) [nM] | IC50 (human GLP-1 receptor [1]; [4]) [nM] | EC50 (human GLP-1 receptor [2]) [pM] | IC50 (human GLP-1 receptor [1]; [5]) [nM] | EC50 (human GLP-1 receptor [2]; [6]) [pM] |
| --- | --- | --- | --- | --- | --- |
| CC[C@H](C)[C@H](NC(=O)[C@H](Cc1ccccc1)NC(=O)[C@H](CCC(=O)O)NC(=O)[C@H](CCCNC(=N)N)NC(=O)[C@H](C)NC(=O)[C@H](C)NC(=O)[C@H](CCC(N)=O)NC(=O)[C@H](CCC(=O)O)NC(=O)[C@H](CCC(=O)O)NC(=O)[C@H](CC(C)C)NC(=O)[C@H](Cc1ccc(O)cc1)NC(=O)[C@H](CO)NC(=O)[C@H](CO)NC(=O)[C@@H](NC(=O)[C@H](CC(=O)O)NC(=O)[C@H](CO)NC(=O)[C@@H](NC(=O)[C@H](Cc1ccccc1)NC(=O)[C@@H](NC(=O)CNC(=O)[C@H](CCC(=O)O)NC(=O)C(C)(C)NC(=O)[C@@H](N)Cc1c[nH]cn1)[C@@H](C)O)[C@@H](C)O)C(C)C)C(=O)N[C@@H](C)C(=O)N[C@@H](Cc1c[nH]c2ccccc12)C(=O)N[C@@H](CC(C)C)C(=O)N[C@H](C(=O)N[C@@H](CCCNC(=N)N)C(=O)NCC(=O)N[C@@H](CCCNC(=N)N)C(=O)N[C@@H](CCCCNC(=O)CN(CCCNC(=O)COCCOCCNC(=O)COCCOCCNC(=O)COCCOCCNC(=O)COCCOCCNC(=O)COCCOCCNC(=O)COCCOCCNC(=O)CC[C@H](NC(=O)CCCNC(=O)CCCCCCCCCCCCCCCS(=O)(=O)O)C(=O)O)CCCNC(=O)COCCOCCNC(=O)COCCOCCNC(=O)COCCOCCNC(=O)COCCOCCNC(=O)COCCOCCNC(=O)COCCOCCNC(=O)CC[C@H](NC(=O)CCCNC(=O)CCCCCCCCCCCCCCCS(=O)(=O)O)C(=O)O)C(=O)O)C(C)C [Example 18, N{Epsilon-37}-[2-[bis[3-[[2-[2-[2-[[2-[2-[2-[[2-[2-[2-[[2-[2-[2-[[2-[2-[2-[[2-[2-[2-[[(4S)-4-carboxy-4-[4-(16-sulfohexadecanoylamino)butanoylamino]butanoyl]amino]ethoxy]ethoxy]acetyl]amino]ethoxy]ethoxy]acetyl]amino]ethoxy]ethoxy]acetyl]amino]ethoxy]ethoxy]acetyl]amino]ethoxy]ethoxy]acetyl]amino]ethoxy]ethoxy]acetyl]amino]propyl]amino]acetyl]-[Aib8,Glu22,Arg26,Arg34,Lys37]-GLP-1-(7-37)-peptide] | 5.7 | 0.18 | 1.3 |  |  |
| CC[C@H](C)[C@H](NC(=O)[C@H](Cc1ccccc1)NC(=O)[C@H](CCC(=O)O)NC(=O)[C@H](CCCNC(=N)N)NC(=O)[C@H](C)NC(=O)[C@H](C)NC(=O)[C@H](CCC(N)=O)NC(=O)[C@H](CCC(=O)O)NC(=O)[C@H](CCC(=O)O)NC(=O)[C@H](CC(C)C)NC(=O)[C@H](Cc1ccc(O)cc1)NC(=O)[C@H](CO)NC(=O)[C@H](CO)NC(=O)[C@@H](NC(=O)[C@H](CC(=O)O)NC(=O)[C@H](CO)NC(=O)[C@@H](NC(=O)[C@H](Cc1ccccc1)NC(=O)[C@@H](NC(=O)CNC(=O)[C@H](CCC(=O)O)NC(=O)C(C)(C)NC(=O)[C@@H](N)Cc1c[nH]cn1)[C@@H](C)O)[C@@H](C)O)C(C)C)C(=O)N[C@@H](C)C(=O)N[C@@H](Cc1c[nH]c2ccccc12)C(=O)N[C@@H](CC(C)C)C(=O)N[C@H](C(=O)N[C@@H](CCCNC(=N)N)C(=O)NCC(=O)N[C@@H](CCCNC(=N)N)C(=O)N[C@@H](CCCCNC(=O)CN(CCCNC(=O)COCCOCCNC(=O)COCCOCCNC(=O)COCCOCCNC(=O)COCCOCCNC(=O)CC[C@H](NC(=O)[C@H]1CC[C@H](CNC(=O)CCCNC(=O)CCCCCCCCCCCCCCCS(=O)(=O)O)CC1)C(=O)O)CCCNC(=O)COCCOCCNC(=O)COCCOCCNC(=O)COCCOCCNC(=O)COCCOCCNC(=O)CC[C@H](NC(=O)[C@H]1CC[C@H](CNC(=O)CCCNC(=O)CCCCCCCCCCCCCCCS(=O)(=O)O)CC1)C(=O)O)C(=O)O)C(C)C [Example 19, N{Epsilon-37}-[2-[bis[3-[[2-[2-[2-[[2-[2-[2-[[2-[2-[2-[[2-[2-[2-[[(4S)-4-carboxy-4-[[4-[[4-(16-sulfohexadecanoylamino)butanoylamino]methyl]cyclohexanecarbonyl]amino]butanoyl]amino]ethoxy]ethoxy]acetyl]amino]ethoxy]ethoxy]acetyl]amino]ethoxy]ethoxy]acetyl]amino]ethoxy]ethoxy]acetyl]amino]propyl]amino]acetyl]-[Aib8,Glu22,Arg26,Arg34,Lys37]-GLP-1-(7-37)-peptide] |  | 0.15 |  | 42 | 1.4 |
| CC[C@H](C)[C@H](NC(=O)[C@H](Cc1ccccc1)NC(=O)[C@H](CCC(=O)O)NC(=O)[C@H](CCCNC(=N)N)NC(=O)[C@H](C)NC(=O)[C@H](C)NC(=O)[C@H](CCC(N)=O)NC(=O)[C@H](CCC(=O)O)NC(=O)[C@H](CCC(=O)O)NC(=O)[C@H](CC(C)C)NC(=O)[C@H](Cc1ccc(O)cc1)NC(=O)[C@H](CO)NC(=O)[C@H](CO)NC(=O)[C@@H](NC(=O)[C@H](CC(=O)O)NC(=O)[C@H](CO)NC(=O)[C@@H](NC(=O)[C@H](Cc1ccccc1)NC(=O)[C@@H](NC(=O)CNC(=O)[C@H](CCC(=O)O)NC(=O)C(C)(C)NC(=O)[C@@H](N)Cc1c[nH]cn1)[C@@H](C)O)[C@@H](C)O)C(C)C)C(=O)N[C@@H](C)C(=O)N[C@@H](Cc1c[nH]c2ccccc12)C(=O)N[C@@H](CC(C)C)C(=O)N[C@H](C(=O)N[C@@H](CCCNC(=N)N)C(=O)NCC(=O)N[C@@H](CCCNC(=N)N)C(=O)N[C@@H](CCCCNC(=O)CN(CCCNC(=O)COCCOCCNC(=O)COCCOCCNC(=O)COCCOCCNC(=O)COCCOCCNC(=O)COCCOCCNC(=O)CC[C@H](NC(=O)[C@H]1CC[C@H](CNC(=O)CCCNC(=O)CCCCCCCCCCCCCCCS(=O)(=O)O)CC1)C(=O)O)CCCNC(=O)COCCOCCNC(=O)COCCOCCNC(=O)COCCOCCNC(=O)COCCOCCNC(=O)COCCOCCNC(=O)CC[C@H](NC(=O)[C@H]1CC[C@H](CNC(=O)CCCNC(=O)CCCCCCCCCCCCCCCS(=O)(=O)O)CC1)C(=O)O)C(=O)O)C(C)C [Example 20, N{Epsilon-37}-[2-[bis[3-[[2-[2-[2-[[2-[2-[2-[[2-[2-[2-[[2-[2-[2-[[2-[2-[2-[[(4S)-4-carboxy-4-[[4-[[4-(16-sulfohexadecanoylamino)butanoylamino]methyl]cyclohexanecarbonyl]amino]butanoyl]amino]ethoxy]ethoxy]acetyl]amino]ethoxy]ethoxy]acetyl]amino]ethoxy]ethoxy]acetyl]amino]ethoxy]ethoxy]acetyl]amino]ethoxy]ethoxy]acetyl]amino]propyl]amino]acetyl]-[Aib8,Glu22,Arg26,Arg34,Lys37]-GLP-1-(7-37)-peptide] |  | 0.14 |  | 3.7 | 1.6 |
| CC[C@H](C)[C@H](NC(=O)[C@H](Cc1ccccc1)NC(=O)[C@H](CCC(=O)O)NC(=O)[C@H](CCCNC(=N)N)NC(=O)[C@H](C)NC(=O)[C@H](C)NC(=O)[C@H](CCC(N)=O)NC(=O)[C@H](CCC(=O)O)NC(=O)[C@H](CCC(=O)O)NC(=O)[C@H](CC(C)C)NC(=O)[C@H](Cc1ccc(O)cc1)NC(=O)[C@H](CO)NC(=O)[C@H](CO)NC(=O)[C@@H](NC(=O)[C@H](CC(=O)O)NC(=O)[C@H](CO)NC(=O)[C@@H](NC(=O)[C@H](Cc1ccccc1)NC(=O)[C@@H](NC(=O)CNC(=O)[C@H](CCC(=O)O)NC(=O)C(C)(C)NC(=O)[C@@H](N)Cc1c[nH]cn1)[C@@H](C)O)[C@@H](C)O)C(C)C)C(=O)N[C@@H](C)C(=O)N[C@@H](Cc1c[nH]c2ccccc12)C(=O)N[C@@H](CC(C)C)C(=O)N[C@H](C(=O)N[C@@H](CCCNC(=N)N)C(=O)NCC(=O)N[C@@H](CCCNC(=N)N)C(=O)N[C@@H](CCCCNC(=O)CN(CCCNC(=O)COCCOCCNC(=O)COCCOCCNC(=O)COCCOCCNC(=O)COCCOCCNC(=O)COCCOCCNC(=O)COCCOCCNC(=O)CC[C@H](NC(=O)[C@H]1CC[C@H](CNC(=O)CCCNC(=O)CCCCCCCCCCCCCCCS(=O)(=O)O)CC1)C(=O)O)CCCNC(=O)COCCOCCNC(=O)COCCOCCNC(=O)COCCOCCNC(=O)COCCOCCNC(=O)COCCOCCNC(=O)COCCOCCNC(=O)CC[C@H](NC(=O)[C@H]1CC[C@H](CNC(=O)CCCNC(=O)CCCCCCCCCCCCCCCS(=O)(=O)O)CC1)C(=O)O)C(=O)O)C(C)C [Example 21] | 16 | 0.13 | 1.5 |  |  |
